In the test the target is Squalene monooxygenase (Rattus norvegicus, UniProt P52020). As to the kind of experiment: The compound was tested for its inhibitory activity against rat Squalene epoxidase.

Drawing on ChEMBL document CHEMBL1128841, “Purification of pig and rat liver squalene epoxidase by affinity chromatography” (Bioorg Med Chem Lett, 1995), this text covers IC50 for 1 molecule.

Molecules are shown by their SMILES.

As a reminder, the IC50 is the concentration that inhibits the measured activity by half.

Squalene monooxygenase, sequence (P52020 whole entry): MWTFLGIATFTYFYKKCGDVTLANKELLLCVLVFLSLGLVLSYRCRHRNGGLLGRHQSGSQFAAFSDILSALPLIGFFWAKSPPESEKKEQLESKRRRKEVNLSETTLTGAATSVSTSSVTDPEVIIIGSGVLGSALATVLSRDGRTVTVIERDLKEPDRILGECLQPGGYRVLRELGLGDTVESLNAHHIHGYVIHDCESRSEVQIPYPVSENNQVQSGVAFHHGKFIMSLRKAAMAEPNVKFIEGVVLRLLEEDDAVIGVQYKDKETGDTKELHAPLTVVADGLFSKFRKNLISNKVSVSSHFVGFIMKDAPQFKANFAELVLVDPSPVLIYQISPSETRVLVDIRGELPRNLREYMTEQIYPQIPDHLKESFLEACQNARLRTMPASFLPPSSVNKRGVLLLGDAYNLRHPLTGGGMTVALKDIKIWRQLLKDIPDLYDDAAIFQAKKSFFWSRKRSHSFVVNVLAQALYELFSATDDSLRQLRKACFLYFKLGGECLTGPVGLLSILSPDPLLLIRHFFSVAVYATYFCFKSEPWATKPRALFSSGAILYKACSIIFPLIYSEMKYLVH

`CNCCC/C(C)=C/CC/C(C)=C/CC/C=C(\C)CC/C=C(\C)CCCNCCCCCCN` registered an IC50 of 1000 nM.
